From ChEMBL document CHEMBL1201862, “PubChem BioAssay data set” (2004)
Active and inactive are the calls of the source.

Assays:
Type in all cases: functional
Cannabinoid receptor 1 [1] = target: T1, Cannabinoid receptor 1 (Homo sapiens, UniProt P21554); test: SAR analysis of antagonists of the Cannabinoid Receptor 1 using an Image-Based Assay - Set 4. [Related pubchem assays (depositor defined):AID2013, AID2026]
Cannabinoid receptor 2 [2] = target: T2, Cannabinoid receptor 2 (Homo sapiens, UniProt P34972); test: SAR analysis of agonists of the Cannabinoid Receptor 2 using an Image-Based Assay - Set 3. [Related pubchem assays (depositor defined):AID2013, AID2026]
T2 sequence (P34972 whole entry): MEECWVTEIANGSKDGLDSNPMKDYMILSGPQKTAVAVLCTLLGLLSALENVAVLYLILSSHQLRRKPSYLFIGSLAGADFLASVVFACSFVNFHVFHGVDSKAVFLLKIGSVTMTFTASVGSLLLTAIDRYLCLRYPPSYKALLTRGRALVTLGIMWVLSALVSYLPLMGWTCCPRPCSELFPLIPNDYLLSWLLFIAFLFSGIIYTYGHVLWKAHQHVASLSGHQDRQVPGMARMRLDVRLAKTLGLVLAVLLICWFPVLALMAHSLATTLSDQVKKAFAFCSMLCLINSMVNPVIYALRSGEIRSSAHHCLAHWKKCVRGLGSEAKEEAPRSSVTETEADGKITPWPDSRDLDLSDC

[3] = target: T3, G-protein coupled receptor 35 (Homo sapiens, UniProt Q9HC97); test: SAR analysis of Antagonists of the GPR35 Receptor using an Image-Based Assay - Set 6. [Related pubchem assays (depositor defined):AID2013, AID2026]
T3 sequence (Q9HC97 whole entry): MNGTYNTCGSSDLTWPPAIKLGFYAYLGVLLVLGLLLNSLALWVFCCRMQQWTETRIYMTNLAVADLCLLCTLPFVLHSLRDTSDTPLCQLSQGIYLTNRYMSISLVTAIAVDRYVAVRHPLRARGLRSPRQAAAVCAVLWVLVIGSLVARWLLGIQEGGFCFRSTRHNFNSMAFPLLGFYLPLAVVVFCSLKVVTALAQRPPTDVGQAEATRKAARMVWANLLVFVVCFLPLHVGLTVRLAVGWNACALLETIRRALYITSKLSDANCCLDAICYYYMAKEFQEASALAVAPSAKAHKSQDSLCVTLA

Cannabinoid receptor 2 [4] = target: T2, Cannabinoid receptor 2; test: SAR analysis of antagonists of the Cannabinoid Receptor 2 using an Image-Based Assay - Set 3. [Related pubchem assays (depositor defined):AID2013, AID2026]
Cannabinoid receptor 1 [5] = target: T1, Cannabinoid receptor 1; test: SAR analysis of agonists of the Cannabinoid Receptor 1 using an Image-Based Assay - Set 4. [Related pubchem assays (depositor defined):AID2013, AID2026]
[6] = target: G-protein coupled receptor 55 (Homo sapiens, UniProt Q9Y2T6); test: SAR Analysis of Selective Antagonists of GPR55 using an Image-Based Assay - Set 4. [Related pubchem assays (depositor defined):AID2013, AID2026];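 also: antagonism of response to 5 µM lysophosphatidylinositol agonist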
Chain of G-protein coupled receptor 55 (Q9Y2T6 whole entry): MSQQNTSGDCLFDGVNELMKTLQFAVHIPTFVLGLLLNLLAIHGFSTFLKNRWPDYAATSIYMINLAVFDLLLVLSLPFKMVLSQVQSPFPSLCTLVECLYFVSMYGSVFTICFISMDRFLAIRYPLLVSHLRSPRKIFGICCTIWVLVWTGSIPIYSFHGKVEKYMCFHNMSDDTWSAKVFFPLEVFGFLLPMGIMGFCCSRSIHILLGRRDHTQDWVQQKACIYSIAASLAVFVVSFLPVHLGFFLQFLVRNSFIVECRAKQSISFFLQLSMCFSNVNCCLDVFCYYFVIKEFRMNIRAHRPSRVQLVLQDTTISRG

[7] = target: T3, G-protein coupled receptor 35; test: SAR analysis of Agonists of the GPR35 Receptor using an Image-Based Assay - Set 4. [Related pubchem assays (depositor defined):AID2013, AID2026]
[8] = (§1) Counterscreen for antagonists of the orexin 1 receptor (OX1R; HCRTR1): Fluorescence-based cell-based high throughput dose response assay to identify antagonists of the parental CHO cell line. [Related pubchem assays (depositor defined):AID434989, AID435008, AID463079, AID485270, AID492963, AID492964, AID492965, AID493232, AID504699, AID504701]
[9] = target: T4, Orexin/Hypocretin receptor type 1 (Homo sapiens, UniProt O43613); test: (§2) Fluorescence-based cell-based high throughput dose response assay for antagonists of the orexin 1 receptor (OX1R; HCRTR1). [Related pubchem assays (depositor defined):AID434989, AID435008, AID463079, AID485270, AID492963, AID492964, AID492965, AID493232, AID504717, AID504718]
T4 sequence (O43613 whole entry): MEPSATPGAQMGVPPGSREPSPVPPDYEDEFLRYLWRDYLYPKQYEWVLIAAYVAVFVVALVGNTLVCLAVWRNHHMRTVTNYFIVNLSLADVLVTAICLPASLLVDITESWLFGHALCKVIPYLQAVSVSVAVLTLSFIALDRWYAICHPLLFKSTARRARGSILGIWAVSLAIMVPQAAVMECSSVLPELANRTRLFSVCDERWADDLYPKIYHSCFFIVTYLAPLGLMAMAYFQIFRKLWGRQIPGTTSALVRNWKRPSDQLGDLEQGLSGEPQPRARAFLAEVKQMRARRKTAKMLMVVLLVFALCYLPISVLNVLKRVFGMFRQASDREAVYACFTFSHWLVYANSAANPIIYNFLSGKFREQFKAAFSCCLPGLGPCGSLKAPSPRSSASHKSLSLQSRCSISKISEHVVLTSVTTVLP

CHO-K1 = test: as §1, with “Homogeneous time resolved fluorescence (HTRF)-based” for “Fluorescence-based”, “cell-based” for “cell-based high throughput”, “CHO-K1” for “CHO”; conditions: Cricetulus griseus;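 also: potency for inhibition of ATP-stimulated IP1 production as antagonists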
[10] = target: T4, Orexin/Hypocretin receptor type 1; test: as §2, with “Homogeneous Time Resolved Fluorescence (HTRF)-based” for “Fluorescence-based”
[11] = HEp-2 cell cytotoxicity, dose response, cytotoxicity control for RSV inhibitor project, HTS (AID 2410); conditions: human respiratory syncytial virus
[12] = target: T5, Tyrosine-protein phosphatase non-receptor type 7 (Homo sapiens, UniProt P35236); test: HePTP (PTPN7) phosphatase inhibitor potency, SAR follow-up, biochemical, set 2 (AID 449736)
T5 sequence (P35236 whole entry): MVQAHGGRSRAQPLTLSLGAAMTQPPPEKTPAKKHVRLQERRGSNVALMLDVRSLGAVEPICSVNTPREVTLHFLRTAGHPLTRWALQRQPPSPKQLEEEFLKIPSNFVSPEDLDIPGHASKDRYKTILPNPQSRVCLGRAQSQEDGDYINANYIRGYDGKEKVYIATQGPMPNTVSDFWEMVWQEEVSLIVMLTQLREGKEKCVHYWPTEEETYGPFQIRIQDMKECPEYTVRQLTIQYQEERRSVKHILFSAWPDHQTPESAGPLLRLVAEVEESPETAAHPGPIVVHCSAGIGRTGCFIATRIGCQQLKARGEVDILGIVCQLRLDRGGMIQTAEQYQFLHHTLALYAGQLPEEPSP

[13] = target: Sphingosine 1-phosphate receptor 4 (Homo sapiens, UniProt O95977); test: Fluorescence dose response cell-based high throughput screening assay for agonists of the Sphingosine 1-Phosphate Receptor 4 (S1P4). [Related pubchem assays: 1509 (Primary screen.), 1523 (Confirmation screen in triplicates.)]
Chain of Sphingosine 1-phosphate receptor 4 (O95977 whole entry): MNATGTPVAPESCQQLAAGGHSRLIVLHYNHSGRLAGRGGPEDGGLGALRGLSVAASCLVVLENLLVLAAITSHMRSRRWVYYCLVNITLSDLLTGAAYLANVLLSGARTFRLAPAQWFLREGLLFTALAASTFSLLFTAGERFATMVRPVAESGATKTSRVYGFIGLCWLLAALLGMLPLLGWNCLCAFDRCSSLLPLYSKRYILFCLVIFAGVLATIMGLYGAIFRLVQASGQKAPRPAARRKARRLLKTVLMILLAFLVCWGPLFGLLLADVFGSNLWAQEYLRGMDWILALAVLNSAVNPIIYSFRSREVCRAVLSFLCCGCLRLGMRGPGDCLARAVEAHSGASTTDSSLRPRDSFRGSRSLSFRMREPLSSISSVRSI

[14] = target: Sphingosine 1-phosphate receptor 2 (Homo sapiens, UniProt O95136); test: Dose Response Cell Based Assay for Agonists of the S1P2 Receptor. [Related pubchem assays: 729, 736, 843 ]
Chain of Sphingosine 1-phosphate receptor 2 (O95136 whole entry): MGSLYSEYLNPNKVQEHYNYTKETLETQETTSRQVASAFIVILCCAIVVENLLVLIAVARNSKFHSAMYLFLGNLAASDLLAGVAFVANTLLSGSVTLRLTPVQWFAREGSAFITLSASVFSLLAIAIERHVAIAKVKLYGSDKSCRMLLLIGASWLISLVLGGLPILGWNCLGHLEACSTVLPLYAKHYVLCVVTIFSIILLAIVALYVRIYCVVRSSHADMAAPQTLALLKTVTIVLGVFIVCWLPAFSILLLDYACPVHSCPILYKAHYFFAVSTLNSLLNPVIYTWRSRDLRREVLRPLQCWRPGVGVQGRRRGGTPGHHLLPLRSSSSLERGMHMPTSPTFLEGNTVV

[15] = target: Sphingosine 1-phosphate receptor 1 (Homo sapiens, UniProt P21453); test: Fluorescence-based counterscreen assay for S1P4 agonists: Cell-based dose response high throughput screening assay to identify agonists of the Sphingosine 1-Phosphate Receptor 1 (S1P1). [Related pubchem assays (depositor defined):AID1509, AID1523, AID1801, AID463107, AID463118, AID463119, AID463122, AID463123, AID463129, AID463225, AID504400, AID504460]
Chain of Sphingosine 1-phosphate receptor 1 (P21453 whole entry): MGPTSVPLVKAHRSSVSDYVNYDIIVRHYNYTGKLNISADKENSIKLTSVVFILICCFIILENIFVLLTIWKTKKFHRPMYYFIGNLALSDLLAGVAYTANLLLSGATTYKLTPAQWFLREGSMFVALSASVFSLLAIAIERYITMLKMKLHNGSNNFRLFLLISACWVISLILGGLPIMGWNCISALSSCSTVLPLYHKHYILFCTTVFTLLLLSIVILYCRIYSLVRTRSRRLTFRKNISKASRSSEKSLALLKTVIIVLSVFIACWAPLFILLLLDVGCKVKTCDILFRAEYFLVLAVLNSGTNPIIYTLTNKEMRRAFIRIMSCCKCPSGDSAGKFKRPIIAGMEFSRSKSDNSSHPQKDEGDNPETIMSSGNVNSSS

T1 sequence (P21554 whole entry): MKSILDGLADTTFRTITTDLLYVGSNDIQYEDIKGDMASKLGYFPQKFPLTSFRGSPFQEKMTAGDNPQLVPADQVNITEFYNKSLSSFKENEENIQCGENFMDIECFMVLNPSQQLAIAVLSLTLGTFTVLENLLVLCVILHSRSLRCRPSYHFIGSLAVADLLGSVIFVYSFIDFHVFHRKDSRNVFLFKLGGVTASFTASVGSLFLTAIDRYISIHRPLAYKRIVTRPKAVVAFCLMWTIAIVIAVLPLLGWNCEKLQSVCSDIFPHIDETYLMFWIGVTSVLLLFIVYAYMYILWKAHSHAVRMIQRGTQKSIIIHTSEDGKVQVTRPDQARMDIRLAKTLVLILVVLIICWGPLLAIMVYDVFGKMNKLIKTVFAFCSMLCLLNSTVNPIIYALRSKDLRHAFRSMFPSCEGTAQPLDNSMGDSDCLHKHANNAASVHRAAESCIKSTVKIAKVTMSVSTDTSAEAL

With `Cc1[nH]nc(-c2ccc(OCCN3CCOCC3)cc2O)c1-c1ccc(Cl)cc1` the IC50 (Cannabinoid receptor 1 [1]) was 2.11 µM (active), the EC50 (Cannabinoid receptor 2 [2]) was > 32 µM (inactive) and the IC50 [3] was > 32 µM (inactive). The IC50 (Cannabinoid receptor 2 [4]) was 29.1 µM (inactive), the EC50 (Cannabinoid receptor 1 [5]) was > 32 µM (inactive) and the IC50 [6] was 19.2 µM (inactive). For the same compound, the EC50 [7] was > 32 µM (inactive).
With `Cc1cc(C)nc(N=C(N)Nc2ccc(SC(F)F)cc2)n1` the IC50 [8] was 22.1 µM (inactive), the IC50 [9] was 14.7 µM (inactive) and the IC50 (CHO-K1) was > 66.2 µM (inactive). For the same compound, the IC50 [10] was 57 µM (inactive) and the CC50 [11] was 16.1 µM (active).
For `Cc1ccc(C)c(-n2c(N)c(C(=O)N3CCCCC3)sc2=S)c1`, the IC50 [12] was > 100 µM (inactive).
With `Clc1ccc(N2N=C(c3cccs3)CC2c2ccco2)cc1` (stereo unspecified) the EC50 [13] was 9.2 µM (active), the EC50 [14] was 2.71 µM (active) and the EC50 [15] was 5.98 µM (active).
